The source of these data is US20240358682A1, “USE OF ALPHA-2-ADRENERGIC RECEPTOR AGONISTS FOR IMPROVING VISION” (Allergan, Inc., priority 2018, published 2024).

Series [1] relates to patients. In words: Patient case examples (presbyopia, glare/starbursts/halos, night vision, night myopia). It is filed as in vivo, human. An excerpt:
A person complains of an inability to focus on text when reading up close, which is interfering with their ability of read documents at work, as well as reading books and news articles. The problem seems worse under lower lighting conditions, such as the dim lighting in a restaurant. The visual degradation had been occurring over time, but in recent months, the person's inability to focus on text when read close up had been more pronounced such as to interfere with their quality of life. The person is seen by an ophthalmologist who performs a visual acuity test in which they are asked to read lines of letters on an eye chart without the assistance of glasses or contacts (neither of which they wear anyway). They find that they are only able to read the first four lines on the chart, when a person with normal vision should be able to read six. Based on the person's age and results of the test, they are diagnosed with presbyopia. The person is reluctant to have to obtain reading glasses or wear contact lenses and asks if there are any other medical treatments. They are instructed to administer to their eyes a composition comprising a compound of Formula I one or two times a day. Starting with the first couple of doses, the patient reports improved vision when reading text up close. On a follow-up visit to the ophthalmologist, they are again asked to read lines of letters on an eye chart (they are still administering the composition with the compound of Formula I to their eyes), and this time they are able to read the first six lines, a two line improvement over their previous results prior to administering the compound of Formula I to their eyes.
A person has noticed that their near vision has been deteriorating over the last few years such that they often have to hold reading material almost out to arm's length in order to be able to read the print, especially when the ambient light is dim. The person visits their ophthalmologist who performs a basic eye exam and refraction assessment. Based on the examination, the ophthalmologist prescribes a composition comprising brimonidine to constrict the person's pupil to treat the presbyopia, and the person is instructed to administer the composition to their eyes daily as needed.
A person decides to undergo LASIK surgery. The surgeon who will perform the surgery evaluates the patient and determines that they are a suitable candidate for the surgery, but is told that side effects of the surgery include visual glare, visual starbursts, and visual halos, especially at night. The surgeon performs the surgery without any noticeable issues and the patient is discharged. A day later the patient drives home during the evening for the first time since the surgery and notices what appear to be starbursts of light emanating from the headlights and rear lights of other cars, as well as from street lights, and also glare coming from those light sources that interfere with is vision. The patient also observes diffuse rings around some of the street lights and illuminated street signs. Upon consultation, the surgeon confirms that such visual disturbances are indeed the visual glare, visual starburst, and visual halo side effects often seen after LASIK surgery, and the patient is prescribed a composition comprising the compound of Formula I, which the patient administers to their eyes in accordance with the package instructions.
A person has noticed that they are having issues seeing the street names on street signs with good contrast when they are driving at night. The person consults with their ophthalmologist who, upon hearing the patient's description and performing a visual acuity test under low light conditions, prescribes a composition comprising the compound of Formula I, which the patient administers to their eyes in accordance with the package instructions. […]

Series [2] has as its system Dutch Belted rabbits. Kind of series: In vivo rabbit miosis model, low-light (scotopic) conditions. The settings on record: for animals with greater than 2.5 mm reduction in pupil size from baseline: 0.1% w:v, scotopic (<10 lux), n=6; for miotic efficacy compared with brimonidine: single topical dose, low light, FIG. 1 to FIG. 4. Here is the method:
(§1) Female Dutch Belted rabbits (Covance, Princeton, New Jersey) weighing between 2-4 kg were used for these studies. […] For topical dosing, eye drops (volume=35 μl) were instilled into the lower conjunctival sac of the test eye.
Pupil diameter was measured in both the treated and untreated eye with an Optistick to the nearest 0.5 mm. […] All studies were done under low-light conditions in which a red photography light is used providing 2-10 Lux of light.

The procedure of series [3]: Aliquots of the PBS only curve were quenched at time zero to be used as stability controls and calibration standards. Following centrifugation, samples were analyzed by LC-MS/MS bioanalysis. Back-calculated concentrations using the assay PBS curve were used for binding and stability calculations.
For series [4], the system named is Dutch Belted rabbits. In words: In vivo rabbit miosis model, room light conditions. Particulars: room lighting conditions, FIG. 5. Here is the method:
Percentage amounts are % w:v.
as §1
Pupil diameter was measured in both the treated and untreated eye with an Optistick to the nearest 0.5 mm. In all studies, baseline pupil diameter measurements were taken prior to drug administration and then at 0.5, 1, 2, 3 and 4 hours post dose. […]

In series [5] the test system is presbyopic patients. Particulars: different lighting conditions, McDonald II et al.; cited from earlier work.

For the molecule `Cc1c(N=C2NCCN2)ccc2[nH]cnc12` [Compound 1], the “ability to focus on distant objects at night” value in series [1] (person with night myopia) is given as “as good as their ability to do so during the day”. In series [1] (person with presbyopia), the “administrations needed per day to treat presbyopia” value is recorded as “once (or sometimes twice)”. Also, the “improvement in lines read on eye chart” value in series [1] (person with presbyopia, composition one or two times a day) is on record as “two”. The night vision contrast result in series [1] (person, driving at night) is reported as “much better contrast”. Also, the “visual glare, starbursts and halos after LASIK” value in series [1] (person, night driving) is listed as “significantly reduced”. Further, the results for the “animals with greater than 2.5 mm reduction in pupil size from baseline” value in series [2] (after 6 hours) and in series [2] (two hours after dosing) were “more than half” and “virtually all”, respectively. In series [2], the “miotic efficacy compared with brimonidine” value is listed as “greater magnitude of pupil size reduction”. Further, the “pupil constriction at 9 hours after dosing” value in series [2] (topical dose, FIG. 6) was “significant pupil constriction”. Besides, the “effect on pupil constriction compared to Compound 3” value in series [2] (topical dose, FIG. 7) is “greater effect”. In series [3], the “melanin binding (assessment in words)” value is “no significant melanin binding”. Moreover, the “miotic action compared with brimonidine (peak pupil constriction and duration of action)” value in series [4] is given as “greater miotic action than brimonidine”.
`Brc1c(NC2=NCCN2)ccc2nccnc12` [Compound 4, brimonidine, reference compound]: the “administrations needed per day to treat presbyopia” value in series [1] (person with presbyopia) is “three”. Also, the “animals with greater than 2.5 mm reduction in pupil size from baseline” value in series [2] (after 6 hours) is recorded as “virtually none”; in series [2] (half hour after dosing), “much less than half”. The “melanin binding (assessment in words)” value in series [3] was “much more significant binding”. For the same molecule, the “average pupil size after brimonidine” value in series [5] was 3.4 mm.
As for `Brc1c(N=C2NCCN2)ccc2[nH]cnc12` [Compound 3, reference compound], in series [2], the “miotic efficacy compared with brimonidine” value is “much less than brimonidine”.
Same read-out and setting: the entry for `CCc1c(N=C2NCCN2)ccc2[nH]cnc12` [Compound 2, reference compound] is “much less than brimonidine”.
